# Measured values as given in patent US20170015555A1, “LONG-TERM PRESERVATION AND NOVEL APPLICATION OF CHLOROUS ACID AQUEOUS SOLUTION FORMULATION” (priority 2013, published 2017).
# How the values were obtained:
# [1] = Available chlorine concentration after impregnating diluent in treatment sheet; assay type: physicochemical
# Experimental: (1) The available chlorine concentration of the “chlorous acid aqueous solution formulation (see Example 1: Table 11)” was measured, and the formulation was diluted to an available chlorine concentration of 1000 ppm [chlorous acid (HClO2) concentration: 489 ppm] or 500 ppm [chlorous acid (HClO2) concentration: 245 ppm]. (2) The available chlorine concentration of sodium hypochlorite was measured, and the sodium hypochlorite was diluted to an available chlorine concentration of 1000 ppm or 500 ppm. (3) The available chlorine concentration of the diluted solution was measured to find the available chlorine concentration prior to contact with a treatment sheet. (4) Treatment sheets were stacked, rolled up and inserted into a 200 ml-capacity PET bottle. A solution diluted so that the weight ratio of treatment sheet: agent solution would be 1:3 was poured into the 200 ml-capacity PET bottle containing the treatment sheets. (5) After contact with treatment sheets, treatment sheets were pulled out from the 200 ml-capacity PET bottle immediately after contact, after 1 hour, after 2 hours, after 3 hours, after 12 hours, after 24 hours, after 48 hours (after 2 days), after 72 hours (after 3 days), and after 168 hours (after 7 days). The sheets were used as specimens for examining available chlorine concentrations. (6) Solutions from the treatment sheets, the specimens pulled out from the 200 ml-capacity PET bottle, were wrung out into a 100 mL beaker. The available chlorine concentration of the solution was measured.
# 1. About 5 g of solution that was wrung out from the specimen was collected in a triangular flask with a stopper. 2. After adding 10 mL of 10 w/w % potassium iodide to the triangular flask with a stopper, 10 mL of 10% sulfuric acid was added. 3. After sealing, the mixture was left standing for 15 minutes in the dark. 4. 0.1 mol/L sodium thiosulfate solution was added until the color became light yellow. About 1 mL of 1 w/w % starch solution was added, and 0.1 mol/L sodium thiosulfate solution was added until the color of the solution became colorless. 5. Chlorine titer was found by the following equation.
# R; Chlorine titer value a; Amount of 0.1 mol/L sodium thiosulfate solution added (g) f; Factor of 0.1 mol/L sodium thiosulfate solution w; Weight of measured specimen solution (g) 0.0035; Amount of chlorine corresponding to 1 g of 0.1 mol/L sodium thiosulfate 100; Percentage
# [2] = system: Bacillus cereus NBRC15305; assay: Sterilizing effect on floor surface after wiping off imitation vomit, carpet; assay type: cell-based
# Source text: (§1) 1) Chlorous acid aqueous solution formulation (see Example 1: Table 11) Treatment sheet (material: 100% cotton): (about 27×40 cm) *Impregnated at a ratio of weight of treatment sheet (g): amount of liquid (ml)=1:3 2) Imitation vomit Miso solution: adjusted to pH of 2 with hydrochloric acid 3) Test Microbes that were Used E. coli: Escherichia coli IF03927 Staphylococcus aureus: Staphylococcus aureus IF0 12732 Thermoduric Microbes (Bacillus cereus): Bacillus cereus NBRC15305 Microbes of the genus Salmonella: Salmonella Enteritidis IF03313 Enterohemorrhagic Escherichia coli O157: Escherichia coli O157 Enterohemorrhagic Escherichia coli O111: Escherichia coli O111 Enterohemorrhagic Escherichia coli O26: Escherichia coli O26
# (§2) (1) Imitation vomit was spread in an area about the size of an A4 sheet. (2) 5 dry sheets were laid thereon. (3) An agent solution was poured on the dry sheets to wipe off the imitation vomit. (4) A cotton swab was soaked with sterile saline. A portion where imitation vomit was spread was scrubbed with the cotton swab to collect microbes remaining on the floor. After suspending in saline, the solution was spread on a petri dish and cultured. The number of each of the microbes was measured. (5) Test operations 3 and 4 were repeated a total of 7 times (repeated until the imitation vomit could be removed completely).
# [3] = system: Enterohemorrhagic Escherichia coli O111; assay: as above; assay type: cell-based
# Source text: as §1, §2
# [4] = system: Enterohemorrhagic Escherichia coli O157; assay: as above; assay type: cell-based; details: 1000 ppm available chlorine
# Source text: as §1, §2
# [5] = system: Enterohemorrhagic Escherichia coli O26; assay: as above; assay type: cell-based; details: 1000 ppm available chlorine
# Source text: as §1, §2
# [6] = system: Staphylococcus aureus IF0 12732; assay: as above; assay type: cell-based; details: 1000 ppm available chlorine
# Source text: as §1, §2
# [7] = system: Microbes of the genus Salmonella: Salmonella Enteritidis IF03313; assay type: cell-based; details: stored at 25° C. Day 0; 1000 ppm available chlorine
# Source text: as §1, §2
# pathogenic microbes = assay: Sterilizing effect on floor surface when treating vomit, summary over all tested microbes and floors; assay type: cell-based
# Source text: as §1
# (1) Imitation vomit was spread in an area about the size of an A4 sheet. (2) 5 agent solution-containing treatment sheets were laid thereon. (3) The imitation vomit was wiped off. (4) A cotton swab was soaked with sterile saline. A portion where imitation vomit was spread was scrubbed with the cotton swab to collect microbes remaining on the floor. After suspending in saline, the solution was spread on a petri dish and cultured. The number of each of the microbes was measured. […]
# (1) Imitation vomit was spread in an area about the size of an A4 sheet. […] The number of each of the microbes was measured. […]
# [8] = stored at 25° C. Day 0, 1000 ppm available chlorine
# [9] = stored at 25° C. Day 7, Sodium Hypochlorite, 0 ppm
# [10] = stored at 25° C. Day 0, 1000 ppm
smiles,measurement,setting,value
"OCl [Sodium Hypochlorite, sodium hypochlorite]",Available Chlorine Concentration,"[1]; set concentration 500, 1 hour of contact",175 ppm
same,Available Chlorine Concentration,"[1]; set concentration 500, 2 hours of contact",168 ppm
same,Available Chlorine Concentration,"[1]; set concentration 500, 3 hours of contact",144 ppm
same,Available Chlorine Concentration,"[1]; set concentration 500, 12 hours of contact",91 ppm
same,Available Chlorine Concentration,"[1]; set concentration 500, 24 hours of contact",68 ppm
same,Available Chlorine Concentration,"[1]; set concentration 500, 48 hours of contact",39 ppm
same,Available Chlorine Concentration,"[1]; set concentration 500, 72 hours of contact",39 ppm
same,Available Chlorine Concentration,"[1]; set concentration 500, 168 hours of contact",37 ppm
same,Available Chlorine Concentration,"[1]; set concentration 500, 504 hours of contact",32 ppm
same,Available Chlorine Concentration,"[1]; set concentration 500, 720 hours of contact",20 ppm
same,Available Chlorine Concentration,"[1]; set concentration 500, before contact with treatment sheet",549 ppm
same,Available Chlorine Concentration,"[1]; set concentration 500, immediately after contact",352 ppm
same,Available Chlorine Concentration,"[1]; set concentration 1000, 1 hour of contact",631 ppm
same,Available Chlorine Concentration,"[1]; set concentration 1000, 2 hours of contact",595 ppm
same,Available Chlorine Concentration,"[1]; set concentration 1000, 3 hours of contact",515 ppm
same,Available Chlorine Concentration,"[1]; set concentration 1000, 12 hours of contact",184 ppm
same,Available Chlorine Concentration,"[1]; set concentration 1000, 24 hours of contact",89 ppm
same,Available Chlorine Concentration,"[1]; set concentration 1000, 48 hours of contact",76 ppm
same,Available Chlorine Concentration,"[1]; set concentration 1000, 72 hours of contact",54 ppm
same,Available Chlorine Concentration,"[1]; set concentration 1000, 168 hours of contact",40 ppm
same,Available Chlorine Concentration,"[1]; set concentration 1000, 504 hours of contact",34 ppm
same,Available Chlorine Concentration,"[1]; set concentration 1000, 720 hours of contact",24 ppm
same,Available Chlorine Concentration,"[1]; set concentration 1000, before contact with treatment sheet",1045 ppm
same,Available Chlorine Concentration,"[1]; set concentration 1000, immediately after contact",690 ppm
same,Number of Times Wiped 1 Time (remaining microbes),[2]; [8],<10
same,Number of Times Wiped 2 Times (remaining microbes),[2]; [8],<10
same,Number of Times Wiped 3 Times (remaining microbes),[2]; [8],<10
same,Number of Times Wiped 1 Time (remaining microbes),[2]; [9],6.7 × 10^3
same,Number of Times Wiped 2 Times (remaining microbes),[2]; [9],5.2 × 10^3
same,Number of Times Wiped 3 Times (remaining microbes),[2]; [9],4.9 × 10^3
same,Number of Times Wiped 7 Times (remaining microbes),[2]; [9],2.0 × 10^3
same,Number of Times Wiped 1 Time (remaining microbes),[3]; [10],<10
same,Number of Times Wiped 2 Times (remaining microbes),[3]; [10],<10
same,Number of Times Wiped 3 Times (remaining microbes),[3]; [10],<10
same,Number of Times Wiped 1 Time (remaining microbes),[3]; [9],2.3 × 10^3
same,Number of Times Wiped 2 Times (remaining microbes),[3]; [9],1.9 × 10^3
same,Number of Times Wiped 3 Times (remaining microbes),[3]; [9],1.1 × 10^3
same,Number of Times Wiped 1 Time (remaining microbes),[4]; stored at 25° C. Day 0,<10
same,Number of Times Wiped 2 Times (remaining microbes),[4]; stored at 25° C. Day 0,<10
same,Number of Times Wiped 3 Times (remaining microbes),[4]; stored at 25° C. Day 0,<10
same,Number of Times Wiped 1 Time (remaining microbes),[4]; stored at 25° C. Day 7,<10
same,Number of Times Wiped 2 Times (remaining microbes),[4]; stored at 25° C. Day 7,<10
same,Number of Times Wiped 3 Times (remaining microbes),[4]; stored at 25° C. Day 7,<10
same,"Microbes remaining on floor surface, wiped 1 Time",[5]; Day 0 at 25° C.,<10
same,"Microbes remaining on floor surface, wiped 2 Times",[5]; Day 0 at 25° C.,<10
same,"Microbes remaining on floor surface, wiped 3 Times",[5]; Day 0 at 25° C.,<10
same,"Microbes remaining on floor surface, wiped 1 Time",[5]; Day 7 at 25° C.,8.8 × 10^3
same,"Microbes remaining on floor surface, wiped 2 Times",[5]; Day 7 at 25° C.,4.9 × 10^3
same,"Microbes remaining on floor surface, wiped 3 Times",[5]; Day 7 at 25° C.,3.0 × 10^3
same,Number of Times Wiped 1 Time (remaining microbes),[6]; stored at 25° C. Day 0,<10
same,Number of Times Wiped 2 Times (remaining microbes),[6]; stored at 25° C. Day 0,<10
same,Number of Times Wiped 3 Times (remaining microbes),[6]; stored at 25° C. Day 0,<10
same,Number of Times Wiped 1 Time (remaining microbes),[6]; stored at 25° C. Day 7,<10
same,Number of Times Wiped 2 Times (remaining microbes),[6]; stored at 25° C. Day 7,<10
same,Number of Times Wiped 3 Times (remaining microbes),[6]; stored at 25° C. Day 7,<10
same,Number of Times Wiped 1 Time (remaining microbes),[7],<10
same,Number of Times Wiped 2 Times (remaining microbes),[7],<10
same,Number of Times Wiped 3 Times (remaining microbes),[7],<10
same,sterilization of pathogenic microbes on floor surface by wiping,pathogenic microbes; day 0,could be sterilized
same,sterilization of pathogenic microbes on floor surface by wiping,pathogenic microbes; preserved for 7 days,there were cases in which pathogenic microbes could not be sterilized
